Patent US8859559B2, “Substituted pyrazines and their use in the treatment of disease” (Boehringer Ingelheim International GmbH, priority 2011, dated 2014)
pIC50: −log10 of the molar value.

These compounds were tested against T1, ENaC (Epithelial Sodium Channel) (Mus musculus, UniProt Q61180+Q9WU38+Q9WU39) (assay: Ussing chamber: inhibition of amiloride sensitive short circuit current (I_sc) in M-1 cells). Details: mouse kidney M-1 cells.
T1 construct: Mouse kidney M-1 cells were cultivated in DMEM; endogenous in cells; host or cells: Mouse kidney M-1 cells (dexamethasone-treated, on transwell filters)
T1 sequence (Q61180 1-699): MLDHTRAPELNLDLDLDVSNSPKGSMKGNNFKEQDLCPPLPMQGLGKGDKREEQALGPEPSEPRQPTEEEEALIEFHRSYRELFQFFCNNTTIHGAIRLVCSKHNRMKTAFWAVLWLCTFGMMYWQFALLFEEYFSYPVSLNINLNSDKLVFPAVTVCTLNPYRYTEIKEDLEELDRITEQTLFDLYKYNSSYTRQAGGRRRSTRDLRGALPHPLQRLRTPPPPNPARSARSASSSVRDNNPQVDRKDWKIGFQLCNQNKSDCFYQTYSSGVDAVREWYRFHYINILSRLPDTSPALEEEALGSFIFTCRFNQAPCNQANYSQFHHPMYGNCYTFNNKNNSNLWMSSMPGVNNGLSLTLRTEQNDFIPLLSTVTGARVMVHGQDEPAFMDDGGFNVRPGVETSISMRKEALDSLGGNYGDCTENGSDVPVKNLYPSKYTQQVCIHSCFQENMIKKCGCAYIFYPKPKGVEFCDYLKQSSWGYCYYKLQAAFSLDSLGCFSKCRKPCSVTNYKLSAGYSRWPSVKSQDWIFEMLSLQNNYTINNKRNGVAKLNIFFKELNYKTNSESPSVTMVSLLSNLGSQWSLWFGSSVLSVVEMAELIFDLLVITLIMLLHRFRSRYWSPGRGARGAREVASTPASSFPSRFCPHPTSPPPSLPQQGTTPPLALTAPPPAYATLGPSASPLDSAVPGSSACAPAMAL
T1 sequence (Q9WU38 1-638): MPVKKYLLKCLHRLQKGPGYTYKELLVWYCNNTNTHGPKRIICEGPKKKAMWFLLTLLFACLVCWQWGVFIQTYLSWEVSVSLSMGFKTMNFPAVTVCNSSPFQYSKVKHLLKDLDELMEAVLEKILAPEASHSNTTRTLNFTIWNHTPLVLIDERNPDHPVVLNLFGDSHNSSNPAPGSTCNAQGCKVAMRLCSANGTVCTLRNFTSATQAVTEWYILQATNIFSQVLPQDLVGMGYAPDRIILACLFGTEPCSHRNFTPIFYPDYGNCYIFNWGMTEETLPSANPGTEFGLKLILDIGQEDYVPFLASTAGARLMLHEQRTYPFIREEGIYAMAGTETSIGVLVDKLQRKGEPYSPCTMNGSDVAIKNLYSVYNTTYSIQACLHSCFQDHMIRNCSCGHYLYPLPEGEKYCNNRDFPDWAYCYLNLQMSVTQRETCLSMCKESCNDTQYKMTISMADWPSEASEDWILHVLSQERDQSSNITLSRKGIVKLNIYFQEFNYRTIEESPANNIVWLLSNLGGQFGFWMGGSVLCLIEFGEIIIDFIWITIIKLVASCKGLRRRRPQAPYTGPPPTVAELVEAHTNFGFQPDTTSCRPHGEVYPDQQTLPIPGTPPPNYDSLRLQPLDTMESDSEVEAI
T1 sequence (Q9WU39 1-655): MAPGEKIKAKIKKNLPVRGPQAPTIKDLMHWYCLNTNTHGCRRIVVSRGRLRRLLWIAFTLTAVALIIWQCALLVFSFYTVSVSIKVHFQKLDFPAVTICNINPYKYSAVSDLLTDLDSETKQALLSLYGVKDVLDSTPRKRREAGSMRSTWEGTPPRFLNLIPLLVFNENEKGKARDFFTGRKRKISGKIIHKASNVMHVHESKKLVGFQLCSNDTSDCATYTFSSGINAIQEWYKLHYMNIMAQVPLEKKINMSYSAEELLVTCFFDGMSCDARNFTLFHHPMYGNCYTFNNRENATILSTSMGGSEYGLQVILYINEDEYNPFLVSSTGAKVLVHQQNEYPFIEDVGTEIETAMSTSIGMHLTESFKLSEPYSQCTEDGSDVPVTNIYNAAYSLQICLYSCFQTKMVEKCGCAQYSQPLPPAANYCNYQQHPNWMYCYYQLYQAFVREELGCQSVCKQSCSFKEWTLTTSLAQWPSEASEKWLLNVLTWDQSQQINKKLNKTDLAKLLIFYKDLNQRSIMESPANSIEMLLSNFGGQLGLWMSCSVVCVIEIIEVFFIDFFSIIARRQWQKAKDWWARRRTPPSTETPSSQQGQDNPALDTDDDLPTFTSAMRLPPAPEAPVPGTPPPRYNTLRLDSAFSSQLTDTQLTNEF
Format: cell-based
Experimental: Mouse kidney M-1 cells were cultivated in DMEM containing 5% FCS and 5 μM dexamethasone for 10 to 12 days on polyester transwell filters. Filters were inserted into a teflon-coated well-plate which fit into the in-house ussing chamber system. Prior to measurement the medium of M-1 cells was replaced with Caco-2 transport buffer (Invitrogen, Germany). During measurements, the Ussing chamber temperature was kept at 37° C. Short circuit currents (I_sc) were measured in the voltage-clamp mode using an in-house built amplifier (Boehringer Ingelheim, Biberach) with the software package Lab View for data acquisition and analysis. The transepithelial electrical resistance (TEER) was determined by the application of voltage steps of ±5 mV every 5 sec. Compounds were administered at a final concentration of 3 μM or at increasing concentrations (1-3-10 μM) to the apical solution. At the end of each experiment the amiloride sensitive I_SC was measured by adding 3 μM amiloride to the apical compartment. Results are expressed as inhibition in percent of the amiloride effect or as IC50. With the example compounds given above, the following IC50 values were determined in the Ussing Chamber assay: […]
Compound `NC(=NC(=O)c1nc(Cl)c(N)nc1N)NC1CCN(Cc2ccc(C(=O)NCCc3cn(CCCO)cn3)cc2)CC1` [Example 1.52] has a pIC50 of 8.70. In the case of `COC(=O)COc1ccc(CN2CCC(NC(N)=NC(=O)c3nc(Cl)c(N)nc3N)CC2)cc1OCC(=O)OC` [Example 1.53], the pIC50 was 8.15. With `N/C(=N\C(=O)c1nc(Cl)c(N)nc1N)NC1CCN(Cc2ccc(C(=O)NCCOCCO)cc2)CC1` [Example 1.54] the pIC50 was 8.40. Compound `N=C(N)c1ccc(CN2CCC(NC(N)=NC(=O)c3nc(Cl)c(N)nc3N)CC2)cc1` [Example 1.55] has a pIC50 of 8.70. Compound `[N-]=[N+]=NCCOCCOCCOCCN(CCOCCOCCO)C(=O)c1ccc(=O)n(Cc2ccc(CN3CCC(NC(N)=NC(=O)c4nc(Cl)c(N)nc4N)CC3)cc2)c1` [Example 1.56] has a pIC50 of 7.62. For `NC(=NC(=O)c1nc(Cl)c(N)nc1N)NC1CCN(Cc2ccc(CCc3cccnc3)cc2)CC1` [Example 1.57], the pIC50 was 8.30. With `COCCOc1ccc(CCc2ccc(CN3CCC(NC(N)=NC(=O)c4nc(Cl)c(N)nc4N)CC3)cc2)nn1` [Example 1.58] the pIC50 was 8.15. With `CC(C)(C)OC(=O)c1ccc(CN2CCC[C@H](NC(N)=NC(=O)c3nc(Cl)c(N)nc3N)C2)cc1` [Example 1.59] the pIC50 was 6.64. With `NC(=NC(=O)c1nc(Cl)c(N)nc1N)N[C@H]1CCCN(Cc2ccc(C(=O)O)cc2)C1` [Example 1.60] the pIC50 was 6.78. Work on `CC(C)(C)OC(=O)c1ccc(CN2CCC[C@@H](NC(N)=NC(=O)c3nc(Cl)c(N)nc3N)C2)cc1` [Example 1.61] yielded a pIC50 of 7.33. In the case of `NC(=NC(=O)c1nc(Cl)c(N)nc1N)N[C@@H]1CCCN(Cc2ccc(C(=O)O)cc2)C1` [Example 1.62], the pIC50 was 7.06. `NC(=NC(=O)c1nc(Cl)c(N)nc1N)NC1CCN(Cc2ccc(S(=O)(=O)NCCO)cc2)CC1` [Example 1.63] was tested, and the pIC50 was 8.22. With `COc1cc(CN2CCC(NC(N)=NC(=O)c3nc(Cl)c(N)nc3N)CC2)cc(C(=O)O)c1` [Example 1.64] the pIC50 was 7.77. Work on `NC(=NC(=O)c1nc(Cl)c(N)nc1N)NC1CCN(Cc2cccc(C(=O)NCCOCCO)c2)CC1` [Example 1.65] yielded a pIC50 of 8.40. For `COC(=O)COc1ccc(CN2CC(NC(N)=NC(=O)c3nc(Cl)c(N)nc3N)C2)cc1` [Example 1.66], the pIC50 was 6.58. `COC(=O)COc1ccc(CN2CCC(N/C(N)=N/C(=O)c3nc(Br)c(N)nc3N)CC2)cc1` [Example 1.68] was tested, and the pIC50 was 7.96. In the case of `N/C(=N\C(=O)c1nc(Cl)c(N)nc1N)NC1CCN(Cc2ccc(C(=O)NCCCS(=O)(=O)O)cc2)CC1` [Example 2.1], the pIC50 was 7.92. `CN(C)CCN(CCN(C)C)C(=O)c1ccc(CN2CCC(NC(N)=NC(=O)c3nc(Cl)c(N)nc3N)CC2)cc1` [Example 2.2] was tested, and the pIC50 was 8.22. `C[N+](C)(C)CCNC(=O)c1cccc(CN2CCC(NC(N)=NC(=O)c3nc(Cl)c(N)nc3N)CC2)c1` [Example 2.3] gave a pIC50 of 8.52. With `NC(=NC(=O)c1nc(Cl)c(N)nc1N)NC1CCN(Cc2ccc(C(=O)NCCS(=O)(=O)O)cc2)CC1` [Example 2.4] the pIC50 was 7.46. `CN(C)CCNC(=O)Cc1ccc(CN2CCC(NC(N)=NC(=O)c3nc(Cl)c(N)nc3N)CC2)cc1` [Example 2.5] showed a pIC50 of 8.22. With `N/C(=N\C(=O)c1nc(Cl)c(N)nc1N)NC1CCN(Cc2ccc(CCn3cc(CCC(=O)N(CCO)CCO)nn3)cc2)CC1` [Example 3.1] the pIC50 was 7.54. Compound `NC(=NC(=O)c1nc(Cl)c(N)nc1N)NC1CCN(Cc2ccc(CCn3cc(COCCO)nn3)cc2)CC1` [Example 3.2] has a pIC50 of 8.00. `NC(=NC(=O)c1nc(Cl)c(N)nc1N)NC1CCN(Cc2ccc(CCn3cc(COc4cccc(C(=O)NCCOCCO)c4)nn3)cc2)CC1` [Example 3.3] gave a pIC50 of 7.62. Work on `CN(C)Cc1cn(CCc2ccc(CN3CCC(NC(N)=NC(=O)c4nc(Cl)c(N)nc4N)CC3)cc2)nn1` [Example 3.4] yielded a pIC50 of 8.15. For `CN(Cc1cn(CCc2ccc(CN3CCC(NC(N)=NC(=O)c4nc(Cl)c(N)nc4N)CC3)cc2)nn1)C(=O)CCNC(=O)OC(C)(C)C` [Example 3.5], the pIC50 was 8.15. In the case of `CN(Cc1cn(CCc2ccc(CN3CCC(NC(N)=NC(=O)c4nc(Cl)c(N)nc4N)CC3)cc2)nn1)C(=O)CCNCCOCCOCCOCCOC(c1ccccc1)(c1ccccc1)c1ccccc1` [Example 3.6], the pIC50 was 9.00. `NC(=NC(=O)c1nc(Cl)c(N)nc1N)NC1CCN(Cc2ccc(CCn3cc(COCC(CO)(CO)CO)nn3)cc2)CC1` [Example 3.7] showed a pIC50 of 7.66. `NC(=NC(=O)c1nc(Cl)c(N)nc1N)NC1CCN(Cc2ccc(C(=O)NCCOCCOCCOCCn3cc(COCCO)nn3)cc2)CC1` [Example 3.8] showed a pIC50 of 7.72. In the case of `NC(=NC(=O)c1nc(Cl)c(N)nc1N)NC1CCN(Cc2ccc(C(=O)NCCOCCOCCOCCn3cc(COC[B-](F)(F)F)nn3)cc2)CC1` [Example 3.9], the pIC50 was 7.70. Work on `NC(=NC(=O)c1nc(Cl)c(N)nc1N)NC1CCN(Cc2ccc(C(=O)NCCOCCOCCOCCn3cc(CN4CCNCC4)nn3)cc2)CC1` [Example 3.10] yielded a pIC50 of 7.64. With `NC(=NC(=O)c1nc(Cl)c(N)nc1N)NC1CCN(Cc2ccc(-n3cc(COCCO)nn3)cc2)CC1` [Example 3.11] the pIC50 was 8.22. Work on `NC(=NC(=O)c1nc(Cl)c(N)nc1N)NC1CCN(Cc2ccc(-n3cc(CCC(=O)N(CCO)CCO)nn3)cc2)CC1` [Example 3.12] yielded a pIC50 of 8.30. In the case of `NC(=NC(=O)c1nc(Cl)c(N)nc1N)NC1CCN(Cc2ccc(-n3cc(CCC(=O)O)nn3)cc2)CC1` [Example 3.13], the pIC50 was 7.24. With `NC(=NC(=O)c1nc(Cl)c(N)nc1N)NC1CCN(Cc2ccc(-n3cc(COC[B-](F)(F)F)nn3)cc2)CC1` [Example 3.14] the pIC50 was 8.22. Work on `CN(C)Cc1cn(-c2ccc(CN3CCC(NC(N)=NC(=O)c4nc(Cl)c(N)nc4N)CC3)cc2)nn1` [Example 3.15] yielded a pIC50 of 8.70. In the case of `NC(=NC(=O)c1nc(Cl)c(N)nc1N)NC1CCN(Cc2ccc(-n3cc(CCC(=O)N(CCOCCOCCO)CCOCCOCCO)nn3)cc2)CC1` [Example 3.16], the pIC50 was 7.74. `CC(C)(C)[Si](C)(C)OCCN(CCO[Si](C)(C)C(C)(C)C)C(=O)c1ccc(=O)n(CCc2cn(-c3ccc(CN4CCC(NC(N)=NC(=O)c5nc(Cl)c(N)nc5N)CC4)cc3)nn2)c1` [Example 3.17] was tested, and the pIC50 was 8.52. In the case of `CN(Cc1cn(-c2ccc(CN3CCC(NC(N)=NC(=O)c4nc(Cl)c(N)nc4N)CC3)cc2)nn1)C(=O)CCNC(=O)OC(C)(C)C` [Example 3.18], the pIC50 was 8.30. With `NC(=NC(=O)c1nc(Cl)c(N)nc1N)NC1CCN(Cc2ccc(-n3cc(COCC(CO)(CO)CO)nn3)cc2)CC1` [Example 3.19] the pIC50 was 8.10. `CN(Cc1cn(-c2ccc(CN3CCC(NC(N)=NC(=O)c4nc(Cl)c(N)nc4N)CC3)cc2)nn1)C(=O)CCNCCOCCOCCOCCOC(c1ccccc1)(c1ccccc1)c1ccccc1` [Example 3.20] gave a pIC50 of 9.00.
